# Tests used:
# Assay in all cases: Radioligand binding assay (NIMH PDSP)
# Alpha2C (α2C) = target: T1, Alpha2C (α2C) (Homo sapiens, UniProt P18825)
# T1 sequence (P18825 1-462): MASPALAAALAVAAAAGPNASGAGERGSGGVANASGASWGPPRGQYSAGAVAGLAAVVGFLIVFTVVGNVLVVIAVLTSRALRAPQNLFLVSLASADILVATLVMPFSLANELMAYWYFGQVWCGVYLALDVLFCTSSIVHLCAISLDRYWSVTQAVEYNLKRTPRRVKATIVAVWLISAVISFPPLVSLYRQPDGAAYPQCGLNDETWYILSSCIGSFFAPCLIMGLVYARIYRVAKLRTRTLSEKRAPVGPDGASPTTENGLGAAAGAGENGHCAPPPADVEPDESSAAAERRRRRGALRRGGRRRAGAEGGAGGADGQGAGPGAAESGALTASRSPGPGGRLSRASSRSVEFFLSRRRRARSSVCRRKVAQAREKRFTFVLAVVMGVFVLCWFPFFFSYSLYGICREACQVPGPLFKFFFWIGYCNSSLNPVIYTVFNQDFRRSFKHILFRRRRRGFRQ
# Protocol: Compound EU93-108 was also tested for inhibition of binding of probes to a range of GPCRs and other targets (Table 4 and Supporting Table S4). […] EU93-108 produced significant displacement of binding probes for the 5-HT2 receptors and α-1-adrenergic receptors, as well as D3, H1, and σ1 receptors. Concentration–response binding competition curves for these targets were used to determine Ki values (Table 4). Given that the brain concentration of EU93-108 achieved 30 min post i.p. injection is 18 μM (Figure 6), the doses that yield our desired antinociceptive effects may engage some of the receptors listed in Table 4.
# (§1) Conventional competition and saturation radioligand binding assays were used to determine the affinities of reference standards and EU93-108. Experiments were carried out by the NIMH Psychoactive Drug Screening Program (PDSP) and were performed as previously described.[123]
# (§2) The detailed experimental protocols for the radioligand assays are available on the NIMH PDSP website at https://pdsp.unc.edu/pdspweb/content/UNC-CH%20Protocol%20Book.pdf.
# (§3) Receptor Mean % Receptor Mean % Receptor Mean %
# (§4) Inhibition Inhibition Inhibition
# (§5) Supplemental Table S4. Off-Target Actions of EU93-108: Primary GPCR Screen. Cloned human molecular targets were individually expressed and submitted to molecular target-based screening with initial screens performed at a final concentration of 10 µM in quadruplicate. Complete protocols for the assays have been previously published (Besnard J et al. 2012). Where inhibition greater than 50% was measured, secondary screens were performed wherein Ki values were calculated (see Table 4).
# H2 = target: T2, H2 (Homo sapiens, UniProt P25021); conditions: primary screen, quadruplicate
# T2 construct: purchased NIMH Psychoactive Drug Screening Program (PDSP)
# Protocol: as §1, §2, §3, §4, §5
# 5-HT3 = target: T3, 5-HT3 (Homo sapiens, UniProt P46098); conditions: primary screen, quadruplicate
# T3 construct: purchased NIMH Psychoactive Drug Screening Program (PDSP)
# Protocol: as §1, §2, §3, §4, §5
# DOR = target: T4, DOR (Homo sapiens, UniProt P41143); conditions: primary screen, quadruplicate
# T4 construct: purchased NIMH Psychoactive Drug Screening Program (PDSP)
# Protocol: as §1, §2, §3, §4, §5
# KOR = target: T5, KOR (Homo sapiens, UniProt P41145); conditions: primary screen, quadruplicate
# T5 construct: purchased NIMH Psychoactive Drug Screening Program (PDSP)
# Protocol: as §1, §2, §3, §4, §5
# NET = target: T6, NET (Homo sapiens, UniProt P23975); conditions: primary screen, quadruplicate
# T6 construct: purchased NIMH Psychoactive Drug Screening Program (PDSP)
# Protocol: as §1, §2, §3, §4, §5
# 5-HT1B = target: T7, 5-HT1B (Homo sapiens, UniProt P28222); conditions: primary screen, quadruplicate
# T7 construct: purchased NIMH Psychoactive Drug Screening Program (PDSP)
# Protocol: as §1, §2, §3, §4, §5
# SERT = target: T8, SERT (Homo sapiens, UniProt P31645); conditions: primary screen, quadruplicate
# T8 construct: purchased NIMH Psychoactive Drug Screening Program (PDSP)
# Protocol: as §1, §2, §3, §4, §5
# Alpha1B = target: T9, Alpha1B (Homo sapiens, UniProt P35368); conditions: primary screen, quadruplicate
# T9 construct: purchased NIMH Psychoactive Drug Screening Program (PDSP)
# Protocol: as §1, §2, §3, §4, §5
# D2 = target: T10, D2 (Homo sapiens, UniProt P14416); conditions: primary screen, quadruplicate
# T10 construct: purchased NIMH Psychoactive Drug Screening Program (PDSP)
# Protocol: as §1, §2, §3, §4, §5
# Sigma2 = target: T11, Sigma2 (Homo sapiens, UniProt Q5BJF2); conditions: primary screen, quadruplicate
# T11 construct: purchased NIMH Psychoactive Drug Screening Program (PDSP)
# Protocol: as §1, §2, §3, §4, §5
# MOR = target: T12, MOR (Homo sapiens, UniProt P35372); conditions: primary screen, quadruplicate
# T12 construct: purchased NIMH Psychoactive Drug Screening Program (PDSP)
# Protocol: as §1, §2, §3, §4, §5
# Beta1 = target: T13, Beta1 (Homo sapiens, UniProt P08588); conditions: primary screen, quadruplicate
# T13 construct: purchased NIMH Psychoactive Drug Screening Program (PDSP)
# Protocol: as §1, §2, §3, §4, §5
# M5 = target: T14, M5 (Homo sapiens, UniProt P08912); conditions: primary screen, quadruplicate
# T14 construct: purchased NIMH Psychoactive Drug Screening Program (PDSP)
# Protocol: as §1, §2, §3, §4, §5
# D4 = target: T15, D4 (Homo sapiens, UniProt P21917); conditions: primary screen, quadruplicate
# T15 construct: purchased NIMH Psychoactive Drug Screening Program (PDSP)
# Protocol: as §1, §2, §3, §4, §5
# 5-HT1E = target: T16, 5-HT1E (Homo sapiens, UniProt P28566); conditions: primary screen, quadruplicate
# T16 construct: purchased NIMH Psychoactive Drug Screening Program (PDSP)
# Protocol: as §1, §2, §3, §4, §5
# M3 = target: T17, M3 (Homo sapiens, UniProt P20309); conditions: primary screen, quadruplicate
# T17 construct: purchased NIMH Psychoactive Drug Screening Program (PDSP)
# Protocol: as §1, §2, §3, §4, §5
# 5-HT6 = target: T18, 5-HT6 (Homo sapiens, UniProt P50406); conditions: primary screen, quadruplicate
# T18 construct: purchased NIMH Psychoactive Drug Screening Program (PDSP)
# Protocol: as §1, §2, §3, §4, §5
# 5-HT1A = target: T19, 5-HT1A (Homo sapiens, UniProt P08908); conditions: primary screen, quadruplicate
# T19 construct: purchased NIMH Psychoactive Drug Screening Program (PDSP)
# Protocol: as §1, §2, §3, §4, §5
# M1 = target: T20, M1 (Homo sapiens, UniProt P11229); conditions: primary screen, quadruplicate
# T20 construct: purchased NIMH Psychoactive Drug Screening Program (PDSP)
# Protocol: as §1, §2, §3, §4, §5
# BZP Rat Brain Site = conditions: primary screen, 10 µM, quadruplicate
# Protocol: as §1, §2, §3, §4, §5
# M2 = target: T21, M2 (Homo sapiens, UniProt P08172); conditions: primary screen, quadruplicate
# T21 construct: purchased NIMH Psychoactive Drug Screening Program (PDSP)
# Protocol: as §1, §2, §3, §4, §5
# H3 = target: T22, H3 (Homo sapiens, UniProt Q9Y5N1); conditions: primary screen, quadruplicate
# T22 construct: purchased NIMH Psychoactive Drug Screening Program (PDSP)
# Protocol: as §1, §2, §3, §4, §5
# 5-HT7A = target: T23, 5-HT7A (Homo sapiens, UniProt P34969); conditions: primary screen, quadruplicate
# T23 construct: purchased NIMH Psychoactive Drug Screening Program (PDSP)
# Protocol: as §1, §2, §3, §4, §5
# 5-HT5A = target: T24, 5-HT5A (Homo sapiens, UniProt P47898); conditions: primary screen, quadruplicate
# T24 construct: purchased NIMH Psychoactive Drug Screening Program (PDSP)
# Protocol: as §1, §2, §3, §4, §5
# H4 = target: T25, H4 (Homo sapiens, UniProt Q9H3N8); conditions: primary screen, quadruplicate
# T25 construct: purchased NIMH Psychoactive Drug Screening Program (PDSP)
# Protocol: as §1, §2, §3, §4, §5
# 5-HT1D = target: T26, 5-HT1D (Homo sapiens, UniProt P28221); conditions: primary screen, quadruplicate
# T26 construct: purchased NIMH Psychoactive Drug Screening Program (PDSP)
# Protocol: as §1, §2, §3, §4, §5
# M4 = target: T27, M4 (Homo sapiens, UniProt P08173); conditions: primary screen, quadruplicate
# T27 construct: purchased NIMH Psychoactive Drug Screening Program (PDSP)
# Protocol: as §1, §2, §3, §4, §5
# D1 = target: T28, D1 (Homo sapiens, UniProt P21728); conditions: primary screen, quadruplicate
# T28 construct: purchased NIMH Psychoactive Drug Screening Program (PDSP)
# Protocol: as §1, §2, §3, §4, §5
# Beta3 = target: T29, Beta3 (Homo sapiens, UniProt P13945); conditions: primary screen, quadruplicate
# T29 construct: purchased NIMH Psychoactive Drug Screening Program (PDSP)
# Protocol: as §1, §2, §3, §4, §5
# DAT = target: T30, DAT (Homo sapiens, UniProt Q01959); conditions: primary screen, quadruplicate
# T30 construct: purchased NIMH Psychoactive Drug Screening Program (PDSP)
# Protocol: as §1, §2, §3, §4, §5
# T8 sequence (P31645 whole entry): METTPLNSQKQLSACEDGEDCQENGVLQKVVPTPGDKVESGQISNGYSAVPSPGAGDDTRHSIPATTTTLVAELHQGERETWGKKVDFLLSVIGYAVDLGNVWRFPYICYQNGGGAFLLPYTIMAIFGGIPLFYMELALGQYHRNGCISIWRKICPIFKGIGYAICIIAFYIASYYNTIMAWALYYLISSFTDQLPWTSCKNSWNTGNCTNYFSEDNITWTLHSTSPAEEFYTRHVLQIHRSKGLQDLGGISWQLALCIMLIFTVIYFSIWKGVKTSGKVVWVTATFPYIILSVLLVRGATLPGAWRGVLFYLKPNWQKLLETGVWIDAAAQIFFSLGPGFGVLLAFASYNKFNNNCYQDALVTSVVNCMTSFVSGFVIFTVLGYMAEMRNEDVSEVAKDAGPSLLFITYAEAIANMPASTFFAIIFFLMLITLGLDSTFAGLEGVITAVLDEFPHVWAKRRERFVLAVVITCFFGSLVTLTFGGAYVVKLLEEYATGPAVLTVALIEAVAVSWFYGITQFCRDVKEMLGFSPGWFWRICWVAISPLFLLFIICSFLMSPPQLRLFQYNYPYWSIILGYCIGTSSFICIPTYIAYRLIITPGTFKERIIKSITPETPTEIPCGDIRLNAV
# T25 sequence (Q9H3N8 whole entry): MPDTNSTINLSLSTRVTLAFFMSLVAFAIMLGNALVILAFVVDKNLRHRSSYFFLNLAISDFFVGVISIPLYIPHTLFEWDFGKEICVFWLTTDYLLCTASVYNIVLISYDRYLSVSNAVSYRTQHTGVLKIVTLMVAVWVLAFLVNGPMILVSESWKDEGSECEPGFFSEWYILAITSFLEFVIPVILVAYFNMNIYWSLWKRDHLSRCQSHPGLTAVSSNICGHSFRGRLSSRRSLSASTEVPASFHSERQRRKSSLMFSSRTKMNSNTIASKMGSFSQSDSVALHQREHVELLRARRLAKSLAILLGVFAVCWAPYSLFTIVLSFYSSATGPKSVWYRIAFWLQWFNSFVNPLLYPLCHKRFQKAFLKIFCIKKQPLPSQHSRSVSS
# T21 sequence (P08172 whole entry): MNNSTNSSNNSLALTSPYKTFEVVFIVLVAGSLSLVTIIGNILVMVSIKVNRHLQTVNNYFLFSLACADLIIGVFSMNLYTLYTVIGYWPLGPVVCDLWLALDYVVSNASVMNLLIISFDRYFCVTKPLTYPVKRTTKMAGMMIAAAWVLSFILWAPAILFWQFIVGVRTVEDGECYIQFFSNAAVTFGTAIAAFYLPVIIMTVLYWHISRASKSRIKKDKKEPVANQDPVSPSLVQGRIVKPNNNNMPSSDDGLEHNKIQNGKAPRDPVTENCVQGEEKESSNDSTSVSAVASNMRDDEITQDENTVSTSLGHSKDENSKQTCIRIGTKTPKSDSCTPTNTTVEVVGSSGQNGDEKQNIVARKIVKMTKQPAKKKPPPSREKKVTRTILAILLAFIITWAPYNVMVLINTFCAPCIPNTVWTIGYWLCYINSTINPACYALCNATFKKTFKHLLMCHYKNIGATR
# T29 sequence (P13945 whole entry): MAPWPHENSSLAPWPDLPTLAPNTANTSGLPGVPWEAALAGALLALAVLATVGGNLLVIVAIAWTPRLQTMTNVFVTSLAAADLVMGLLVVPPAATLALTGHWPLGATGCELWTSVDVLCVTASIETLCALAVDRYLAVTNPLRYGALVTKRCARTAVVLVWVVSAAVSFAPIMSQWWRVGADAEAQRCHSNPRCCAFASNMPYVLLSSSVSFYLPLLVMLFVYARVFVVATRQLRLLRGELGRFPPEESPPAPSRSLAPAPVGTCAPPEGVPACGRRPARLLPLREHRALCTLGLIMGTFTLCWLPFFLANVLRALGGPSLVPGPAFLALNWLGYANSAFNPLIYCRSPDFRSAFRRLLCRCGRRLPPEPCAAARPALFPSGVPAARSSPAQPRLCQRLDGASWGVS
# T6 sequence (P23975 whole entry): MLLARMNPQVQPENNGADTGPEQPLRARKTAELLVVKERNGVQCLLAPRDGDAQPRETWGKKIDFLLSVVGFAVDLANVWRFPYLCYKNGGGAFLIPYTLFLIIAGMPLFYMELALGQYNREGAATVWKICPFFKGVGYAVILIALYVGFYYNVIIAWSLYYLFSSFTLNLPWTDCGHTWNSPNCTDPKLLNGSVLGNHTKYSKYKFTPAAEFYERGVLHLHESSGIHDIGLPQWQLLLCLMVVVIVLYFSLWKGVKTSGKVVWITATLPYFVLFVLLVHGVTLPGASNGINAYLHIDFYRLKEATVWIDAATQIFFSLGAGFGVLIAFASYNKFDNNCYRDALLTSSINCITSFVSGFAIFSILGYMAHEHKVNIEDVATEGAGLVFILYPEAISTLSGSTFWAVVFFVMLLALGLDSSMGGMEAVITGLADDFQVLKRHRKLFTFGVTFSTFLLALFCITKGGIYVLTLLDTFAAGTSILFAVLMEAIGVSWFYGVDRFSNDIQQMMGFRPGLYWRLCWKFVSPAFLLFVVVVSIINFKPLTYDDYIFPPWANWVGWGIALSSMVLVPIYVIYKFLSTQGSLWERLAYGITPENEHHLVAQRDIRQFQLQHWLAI
# T15 sequence (P21917 whole entry): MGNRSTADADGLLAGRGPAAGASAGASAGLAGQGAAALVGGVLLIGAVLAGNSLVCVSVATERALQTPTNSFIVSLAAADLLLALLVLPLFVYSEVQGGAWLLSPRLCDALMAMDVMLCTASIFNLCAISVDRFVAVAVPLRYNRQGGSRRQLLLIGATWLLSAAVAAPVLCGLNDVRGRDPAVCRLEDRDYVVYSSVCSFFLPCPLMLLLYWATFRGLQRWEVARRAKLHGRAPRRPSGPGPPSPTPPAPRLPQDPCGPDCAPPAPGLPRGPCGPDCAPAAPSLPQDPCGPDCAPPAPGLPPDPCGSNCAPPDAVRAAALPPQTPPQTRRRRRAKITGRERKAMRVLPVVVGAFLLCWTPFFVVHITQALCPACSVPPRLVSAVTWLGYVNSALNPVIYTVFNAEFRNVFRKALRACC
# T3 sequence (P46098 24-478): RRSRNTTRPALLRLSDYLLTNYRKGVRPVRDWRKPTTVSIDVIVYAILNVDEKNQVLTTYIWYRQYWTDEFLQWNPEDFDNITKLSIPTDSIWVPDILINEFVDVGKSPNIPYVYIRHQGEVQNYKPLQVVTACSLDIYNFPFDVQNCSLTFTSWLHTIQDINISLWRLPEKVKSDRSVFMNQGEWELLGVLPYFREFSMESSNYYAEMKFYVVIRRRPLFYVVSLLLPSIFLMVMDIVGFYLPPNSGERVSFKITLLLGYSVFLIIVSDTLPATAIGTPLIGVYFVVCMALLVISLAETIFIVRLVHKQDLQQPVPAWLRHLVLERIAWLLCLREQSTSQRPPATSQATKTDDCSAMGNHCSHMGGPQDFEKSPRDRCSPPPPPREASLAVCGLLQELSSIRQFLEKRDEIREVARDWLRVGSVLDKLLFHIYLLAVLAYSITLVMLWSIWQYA
# T28 sequence (P21728 whole entry): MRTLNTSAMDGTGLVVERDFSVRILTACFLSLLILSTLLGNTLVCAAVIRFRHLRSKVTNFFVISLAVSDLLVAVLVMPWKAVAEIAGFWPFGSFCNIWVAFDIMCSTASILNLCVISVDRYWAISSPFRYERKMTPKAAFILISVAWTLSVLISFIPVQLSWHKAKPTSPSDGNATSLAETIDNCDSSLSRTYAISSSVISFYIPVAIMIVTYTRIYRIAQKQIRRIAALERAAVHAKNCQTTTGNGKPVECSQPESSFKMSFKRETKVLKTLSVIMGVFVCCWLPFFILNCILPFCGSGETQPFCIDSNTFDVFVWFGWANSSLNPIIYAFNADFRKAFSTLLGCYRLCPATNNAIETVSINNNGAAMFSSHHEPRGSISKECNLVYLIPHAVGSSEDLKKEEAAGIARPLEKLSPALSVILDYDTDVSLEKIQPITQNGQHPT
# T22 sequence (Q9Y5N1 whole entry): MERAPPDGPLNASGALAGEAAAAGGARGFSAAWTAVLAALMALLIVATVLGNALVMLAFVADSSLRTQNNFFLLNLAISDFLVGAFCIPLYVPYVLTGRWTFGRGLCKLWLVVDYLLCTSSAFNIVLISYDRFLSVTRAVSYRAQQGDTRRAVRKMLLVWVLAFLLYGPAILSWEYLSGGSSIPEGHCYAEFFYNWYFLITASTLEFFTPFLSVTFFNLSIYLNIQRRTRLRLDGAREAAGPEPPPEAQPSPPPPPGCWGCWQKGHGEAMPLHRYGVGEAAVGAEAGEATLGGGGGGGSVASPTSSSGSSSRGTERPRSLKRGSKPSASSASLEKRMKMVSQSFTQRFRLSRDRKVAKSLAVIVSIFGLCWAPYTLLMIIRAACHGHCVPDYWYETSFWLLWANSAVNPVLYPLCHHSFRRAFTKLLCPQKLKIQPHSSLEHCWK
# T4 sequence (P41143 whole entry): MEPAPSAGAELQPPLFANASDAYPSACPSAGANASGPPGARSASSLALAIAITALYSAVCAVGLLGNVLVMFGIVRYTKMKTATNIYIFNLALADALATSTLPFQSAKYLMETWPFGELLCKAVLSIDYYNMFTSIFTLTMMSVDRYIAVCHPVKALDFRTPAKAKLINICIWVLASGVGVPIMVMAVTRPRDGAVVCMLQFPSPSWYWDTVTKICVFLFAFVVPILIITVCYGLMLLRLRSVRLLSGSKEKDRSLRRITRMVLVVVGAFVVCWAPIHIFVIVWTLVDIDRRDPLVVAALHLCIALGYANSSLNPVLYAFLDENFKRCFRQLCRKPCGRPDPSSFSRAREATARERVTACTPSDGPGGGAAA
# T11 sequence (Q5BJF2 whole entry): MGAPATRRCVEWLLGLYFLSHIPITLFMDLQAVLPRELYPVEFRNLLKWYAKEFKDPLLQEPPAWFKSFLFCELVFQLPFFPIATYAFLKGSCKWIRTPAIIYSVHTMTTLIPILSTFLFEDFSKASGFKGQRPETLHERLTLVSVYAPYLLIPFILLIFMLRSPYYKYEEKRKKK
smiles,measurement,setting,value
"CS(=O)(=O)Nc1ccc(OC[C@@H](O)CN2CCN(c3ccc(F)c(F)c3)CC2)cc1 [EU93-108, (S)-N-(4-(3-(4-(3,4-Difluorophenyl)piperazin-1-yl)-2-hydroxypropoxy)phenyl)methanesulfonamide]",inhibition at 10 µM,"Alpha2C (α2C); primary screen, 10 µM, quadruplicate",63%
same,Ki/IC50 of EU93-108,Alpha2C (α2C); ratio of Ki to the IC50 for EU93-108 (555 nM) at GluN2B,1.55
same,Ki,"Alpha2C (α2C); secondary screen, binding competition curve",862 nM
same,inhibition at 10 µM,H2,13.7%
same,inhibition at 10 µM,5-HT3,0.87%
same,inhibition at 10 µM,DOR,-8.82%
same,inhibition at 10 µM,KOR,-3.1%
same,inhibition at 10 µM,NET,12.5%
same,inhibition at 10 µM,5-HT1B,-7.29%
same,inhibition at 10 µM,SERT,15.1%
same,inhibition at 10 µM,Alpha1B,5.09%
same,inhibition at 10 µM,D2,23.1%
same,inhibition at 10 µM,Sigma2,47.2%
same,inhibition at 10 µM,MOR,4.04%
same,inhibition at 10 µM,Beta1,29.1%
same,inhibition at 10 µM,M5,-0.11%
same,inhibition at 10 µM,D4,11.4%
same,inhibition at 10 µM,5-HT1E,1.68%
same,inhibition at 10 µM,M3,9.26%
same,inhibition at 10 µM,5-HT6,25.3%
same,inhibition at 10 µM,5-HT1A,22.8%
same,inhibition at 10 µM,M1,-18.1%
same,Mean % Inhibition,BZP Rat Brain Site,14.68%
same,inhibition at 10 µM,M2,-23.1%
same,inhibition at 10 µM,H3,22.7%
same,inhibition at 10 µM,5-HT7A,55.9%
same,inhibition at 10 µM,5-HT5A,13%
same,inhibition at 10 µM,H4,2.12%
same,inhibition at 10 µM,5-HT1D,39.2%
same,inhibition at 10 µM,M4,51.4%
same,inhibition at 10 µM,D1,24.7%
same,inhibition at 10 µM,Beta3,-10.5%
same,inhibition at 10 µM,DAT,-7.01%

# Reference: publication PMC9983021, “Novel GluN2B-Selective NMDA Receptor Negative Allosteric Modulator Possesses Intrinsic Analgesic Properties and Enhances Analgesia of Morphine in a Rodent Tail Flick Pain Model” (ACS Chemical Neuroscience, 2023)
